The target of test [1] is T1, Free fatty acid receptor 1 (Homo sapiens, UniProt O14842). Description: Agonist activity at human FFA1 stably expressed in CHO cells at 300 nM by Fluo4-AM dye based intracellular calcium flux FLIPR assay relative to control. It is filed as functional, cell-based.
For test [2], the target named is T1, Free fatty acid receptor 1. Kind of test: Agonist activity at human recombinant GPR40 expressed in CHO cells by Fluo4-AM dye based intracellular calcium flux assay relative to control. It is filed as functional, cell-based. A general note: Calcium flux is commonly read through the fluorescence of an indicator in the cells.
Test [3] has as its target T1, Free fatty acid receptor 1. Description: Agonist activity at human recombinant GPR40 stably expressed in HEK293 cells at 0.1 uM incubated for 24 hrs by FLIPR assay relative to control. The class given is functional, cell-based.
The target in test [4] is T1, Free fatty acid receptor 1. Description: Agonist activity at human GPR40 expressed in HEK293 cells by Fluo4-AM dye based intracellular calcium flux assay. It is filed as functional, cell-based.
Test [5] addresses T1, Free fatty acid receptor 1. Kind of test: Agonist activity at human GPR40 stably expressed in CHO cells assessed as increase in intracellular calcium concentration by FLIPR assay. The class given is functional, cell-based.
Test [6] concerns the target T1, Free fatty acid receptor 1. Kind of test: Agonist activity at human recombinant FFA1 stably expressed in CHO cells assessed as increase in calcium flux by Fluo4-AM dye based FLIPR assay. The class given is functional, cell-based.
The target in test [7] is T1, Free fatty acid receptor 1. Kind of test: Agonist activity at human FFA1 expressed in CHO cells by Fluo4-AM dye based intracellular calcium flux assay. It is filed as functional, cell-based.
A further test concerns the target GPR40-Galpha16 (Homo sapiens, UniProt O14842+P30679). Kind of test: Agonist activity at human GPR40/Galpha-16 expressed in HEK293 cells by Fluo4-AM dye based intracellular calcium flux assay.
The target in test [8] is T2, Peroxisome proliferator-activated receptor gamma (Homo sapiens) (UniProt P37231).
T2 sequence (whole entry): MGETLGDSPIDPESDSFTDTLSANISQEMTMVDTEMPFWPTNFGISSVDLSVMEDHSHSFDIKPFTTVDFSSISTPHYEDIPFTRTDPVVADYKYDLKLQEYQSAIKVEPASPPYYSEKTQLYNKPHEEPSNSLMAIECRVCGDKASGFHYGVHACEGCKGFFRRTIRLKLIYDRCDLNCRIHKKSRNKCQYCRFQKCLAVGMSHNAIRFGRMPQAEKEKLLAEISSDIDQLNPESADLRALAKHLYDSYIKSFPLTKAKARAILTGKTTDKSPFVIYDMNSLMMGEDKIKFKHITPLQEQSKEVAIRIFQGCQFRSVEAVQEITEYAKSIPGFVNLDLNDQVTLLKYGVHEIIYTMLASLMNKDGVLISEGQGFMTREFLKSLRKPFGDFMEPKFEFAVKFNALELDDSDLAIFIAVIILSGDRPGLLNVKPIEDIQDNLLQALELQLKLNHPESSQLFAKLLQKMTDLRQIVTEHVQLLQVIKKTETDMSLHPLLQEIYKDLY
Kind of test: Agonist activity at PPARgamma (unknown origin) assessed as fold increase in calcium by Fluo4-AM dye based intracellular calcium flux assay. It is filed as cell-based. Particulars: filed as agonist.

The target in test [9] is T1, Free fatty acid receptor 1. Description: Agonist activity at human […] expressed in HEK293 cells incubated for 40 mins by Fluo4-AM dye based intracellular calcium flux assay. It is filed as functional, cell-based.

T1 sequence (O14842 whole entry): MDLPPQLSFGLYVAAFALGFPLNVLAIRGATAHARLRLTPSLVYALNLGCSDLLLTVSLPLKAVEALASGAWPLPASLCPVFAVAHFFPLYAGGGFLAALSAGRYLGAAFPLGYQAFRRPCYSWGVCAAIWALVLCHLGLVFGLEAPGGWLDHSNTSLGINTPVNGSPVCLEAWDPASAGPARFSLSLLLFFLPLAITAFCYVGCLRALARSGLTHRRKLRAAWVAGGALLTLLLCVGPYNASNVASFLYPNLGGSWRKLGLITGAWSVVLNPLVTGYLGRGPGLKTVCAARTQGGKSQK
Chain of GPR40-Galpha16 (O14842 whole entry): as above
Chain of GPR40-Galpha16 (P30679 whole entry): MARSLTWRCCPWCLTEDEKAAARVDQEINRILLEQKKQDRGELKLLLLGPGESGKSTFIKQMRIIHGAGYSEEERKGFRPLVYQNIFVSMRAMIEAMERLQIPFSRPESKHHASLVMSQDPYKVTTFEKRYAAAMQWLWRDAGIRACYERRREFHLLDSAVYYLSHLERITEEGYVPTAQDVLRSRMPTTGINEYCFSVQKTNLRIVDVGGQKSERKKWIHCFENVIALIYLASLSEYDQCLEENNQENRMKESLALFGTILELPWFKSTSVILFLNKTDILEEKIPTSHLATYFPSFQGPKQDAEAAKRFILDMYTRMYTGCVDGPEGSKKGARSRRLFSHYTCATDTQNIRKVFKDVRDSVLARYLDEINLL

As for `O=C(O)CC1COc2cc(OCc3cccc(NC(=O)c4coc5ccccc45)c3)ccc21` (configuration not stated), the Activity in test [1] (filed as agonist) turned out to be 50.4%. With `CC1CCN(Cc2c(C(F)(F)F)ccc3c2CC[C@H]3Oc2ccc([C@H](CC(=O)O)c3ccon3)cc2)CC1`, the Activity in test [2] (filed as agonist) was 55.1%.

Regarding `Cc1ccc(O[C@H]2CCOC2)cc1-c1cc(COc2ccc(OCC(=O)O)cc2)cc2c1CCC2`, the Activity in test [3] (filed as agonist) was 133%.

In the case of `CC(C)(CCCCCCCCCCC(C)(C)CC(=O)O)CC(=O)O`, in test [4], the EC50 is 1220 nM. With `Cc1cccc(C(=O)Nc2ccc(CC(=O)O)cc2)c1`, in [5], the EC50 was determined as 13200 nM. As to `Cc1ccccc1-c1cccc(COc2ccc(OCC(=O)O)c(F)c2)c1`, the EC50 in test [6] was 1390 nM.

As to `[2H]C([2H])(Cc1ccc(OCc2cccc(-c3ccccc3C)c2)cc1)C(=O)O`, the EC50 in test [7] was determined as 19.1 nM.

Turning to `O=C(O)CCc1ccc(NCc2cccc(Oc3ccccc3)c2)cc1` [GW9508], the EC50 at GPR40-Galpha16 came to 48 nM. Turning to `[2H]C([2H])(Cc1ccc(OCc2cccc(-c3c(C)cccc3C)c2)cc1)C(=O)O`, the EC50 in test [7] turned out to be 42.7 nM.

`O=C(O)COc1ccc(NC(=O)CSc2nc3ccccc3[nH]2)cc1`: the fold change (FC) in test [8] was 2. Take `Cc1ccc(O[C@H]2CCOC2)cc1-c1cc(COc2ccc(OCC(=O)O)cc2)cc2c1OCC2`: the Activity in test [3] worked out at 1.8%. As to `Cc1cc(O[C@H]2CCOC2)cc(C)c1-c1cccc2c1CC[C@H]2Oc1ccc(OCC(=O)O)cc1`, the Activity in test [3] (filed as agonist) is 47%. On to `O=C(O)CCc1ccc(OCc2ccc3ccccc3n2)cc1`, for which, in [9], the EC50 is 100000 nM. Turning to `COc1ccc2[nH]c(SCC(=O)Nc3ccc(OCC(=O)O)cc3)nc2c1`, the fold change (FC) in test [8] was found to be 2. Consider `Cc1ccc(S(=O)(=O)Nc2cccc(COc3ccc4c(c3)OCC4CC(=O)O)c2)cc1` (configuration not stated), for which the Activity in [1] amounted to 23.7%. For `Cc1ccc(O[C@H]2CCOC2)cc1-c1cccc2c1CC[C@H]2Oc1ccc(OCC(=O)O)cc1`, in test [3] (filed as agonist), the Activity turned out to be 51.7%. `O=C(O)CC1COc2cc(OCc3cccc(OCc4ccccc4)c3)ccc21` (configuration not stated): the Activity in [1] came to 23.5%. Regarding `O=C(O)CC1COc2cc(OCc3cccc(O/C=C/Oc4ccccc4)c3)ccc21` (configuration not stated), the Activity in test [1] (filed as agonist) was found to be 52.7%. For `O=C(O)C[C@@H](c1ccc(O[C@@H]2CCc3c2ccc(C(F)(F)F)c3CN2CCCCCC2)cc1)c1ccon1`, the Activity in [2] (filed as agonist) stood at 48.2%.

With `O=C(O)C[C@@H](c1ccc(O[C@@H]2CCc3c2ccc(C(F)(F)F)c3CN2CCCCC2)cc1)c1ccon1`, the Activity in test [2] worked out at 16.5%. Take `O=C(O)C[C@@H](c1ccc(O[C@@H]2CCc3c2ccc(C(F)(F)F)c3CN2CCC(F)CC2)cc1)c1ccon1`: in [2] (filed as agonist), the Activity is 45.2%.

For `[2H]C([2H])(Cc1ccc(OCc2cccc(-c3c(C)cc(OCCCS(C)(=O)=O)cc3C)c2)cc1)C(=O)O`, the EC50 in test [7] was determined as 72.2 nM.

What is called EC50 is the concentration at which the effect is half-maximal.

The values are drawn from ChEMBL document CHEMBL5528007, “Synthetic GPR40/FFAR1 agonists: An exhaustive survey on the most recent chemical classes and their structure-activity relationships” (Eur J Med Chem, 2024).
